Like-named read-outs stand apart in the source and are kept apart here.
Experiments:
Balb/c splenic B cells = assay: B cell activation and proliferation assay; format: cell-based; conditions: Mus musculus, read-out: B cell proliferation EC50
Protocol: The ability of one or more subject compounds to inhibit B cell activation and proliferation is determined according to standard procedures known in the art. For example, an in vitro cellular proliferation assay is established that measures the metabolic activity of live cells. The assay is performed in a 96 well microtiter plate using Alamar Blue reduction. Balb/c splenic B cells are purified over a Ficoll-Paque™ PLUS gradient followed by magnetic cell separation using a MACS B cell Isolation Kit (Miletenyi). Cells are plated in 90 μl at 50.000 cells/well in B Cell Media (RPMI+10% FBS+Penn/Strep+50 μME5 mM HEPES). A compound provided herein is diluted in B Cell Media and added in a 10 μl volume. Plates are incubated for 30 min at 37° C. and 5% CO2 (0.2% DMSO final concentration). A 50 μl B cell stimulation cocktail is then added containing either 10 μg/ml LPS or 5 μg/ml F(ab′)2 Donkey anti-mouse IgM plus 2 ng/ml recombinant mouse IL4 in B Cell Media. Plates are incubated for 72 hours at 37° C. and 5% CO2. A volume of 15 μL of Alamar Blue reagent is added to each well and plates are incubated for 5 hours at 37° C. and 5% CO2. Alamar Blue fluoresce is read at 560Ex/590Em, and IC50 or EC50 values are calculated using GraphPad Prism 5.

PI3Kβ = target: T1, PI3Kβ (Homo sapiens, UniProt P42338); assay: PI3-Kinase HTRF assay, PI3Kβ; format: biochemical; conditions: bins Greater than 10 μM and Greater than 1 μM to 10 μM; 10 μM ATP, PIP2 at 10 μM
T1 construct: purchased Millipore Corporation 14-603-K
Description: (§1) A PI3-Kinase HTRF® assay kit (cat No. 33-016) purchased from Millipore Corporation was used to screen compounds provided herein. This assay used specific, high affinity binding of the GRPI pleckstrin homology (PH) domain to PIP3, the product of a Class 1A or 1B PI3 Kinase acting on its physiological substrate PIP2. During the detection phase of the assay, a complex was generated between the GST-tagged PH domain and biotinylated short chain PIP3. The biotinylated PIP3 and the GST-tagged PH domain recruited fluorophores (Streptavidin-Allophycocyanin and Europium-labeled anti-GST respectively) to form the fluorescence resonance energy transfer (FRET) architecture, generating a stable time-resolved FRET signal. The FRET complex was disrupted in a competitive manner by non-biotinylated PIP3, a product formed in the PI3 Kinase assay.
(§2) PI3 Kinase α, β, γ and δ activity was assayed using the PI3 Kinase HTRF® assay kit (catalogue No. 33-016) purchased from Millipore Corporation. Purified recombinant PI3Kα (catalogue No. 14-602-K), PI3Kβ (catalogue No. 14-603-K), PI3Kγ (catalogue No. 14-558-K) and PI3Kδ (catalogue No. 14-604-K) were obtained from Millipore Corporation. Purified recombinant PI3K enzyme was used to catalyze the phosphorylation of phosphatidylinositol 4,5-bisphosphate (PIP2 at 10 μM) to phosphatidylinositol 3,4,5-trisphosphate (PIP3) in the presence of 10 μM ATP. The assay was carried out in 384-well format and detected using a Perkin Elmer EnVision Xcite Multilabel Reader. Emission ratios were converted into percent inhibitions and imported into GraphPad Prism software. The concentration necessary to achieve inhibition of enzyme activity by 50% (IC50) was calculated using concentrations ranging from 20 μM to 0.1 nM (12-point curve). IC50 values were determined using a nonlinear regression model available in GraphPad Prism 5. […]

PI3Kα = target: T2, PI3Kα (Homo sapiens, UniProt P42336); assay: PI3-Kinase HTRF assay, PI3Kα; format: biochemical; conditions: bins Greater than 10 μM and Greater than 1 μM to 10 μM; 10 μM ATP, PIP2 at 10 μM; read-out: IC50 P13Kα
T2 construct: purchased Millipore Corporation 14-602-K
Description: as §1, §2

[1] = column bins 1 μM to 100 nM (given as 100-1000) and Less than 100 nM

T1 sequence (P42338 whole entry): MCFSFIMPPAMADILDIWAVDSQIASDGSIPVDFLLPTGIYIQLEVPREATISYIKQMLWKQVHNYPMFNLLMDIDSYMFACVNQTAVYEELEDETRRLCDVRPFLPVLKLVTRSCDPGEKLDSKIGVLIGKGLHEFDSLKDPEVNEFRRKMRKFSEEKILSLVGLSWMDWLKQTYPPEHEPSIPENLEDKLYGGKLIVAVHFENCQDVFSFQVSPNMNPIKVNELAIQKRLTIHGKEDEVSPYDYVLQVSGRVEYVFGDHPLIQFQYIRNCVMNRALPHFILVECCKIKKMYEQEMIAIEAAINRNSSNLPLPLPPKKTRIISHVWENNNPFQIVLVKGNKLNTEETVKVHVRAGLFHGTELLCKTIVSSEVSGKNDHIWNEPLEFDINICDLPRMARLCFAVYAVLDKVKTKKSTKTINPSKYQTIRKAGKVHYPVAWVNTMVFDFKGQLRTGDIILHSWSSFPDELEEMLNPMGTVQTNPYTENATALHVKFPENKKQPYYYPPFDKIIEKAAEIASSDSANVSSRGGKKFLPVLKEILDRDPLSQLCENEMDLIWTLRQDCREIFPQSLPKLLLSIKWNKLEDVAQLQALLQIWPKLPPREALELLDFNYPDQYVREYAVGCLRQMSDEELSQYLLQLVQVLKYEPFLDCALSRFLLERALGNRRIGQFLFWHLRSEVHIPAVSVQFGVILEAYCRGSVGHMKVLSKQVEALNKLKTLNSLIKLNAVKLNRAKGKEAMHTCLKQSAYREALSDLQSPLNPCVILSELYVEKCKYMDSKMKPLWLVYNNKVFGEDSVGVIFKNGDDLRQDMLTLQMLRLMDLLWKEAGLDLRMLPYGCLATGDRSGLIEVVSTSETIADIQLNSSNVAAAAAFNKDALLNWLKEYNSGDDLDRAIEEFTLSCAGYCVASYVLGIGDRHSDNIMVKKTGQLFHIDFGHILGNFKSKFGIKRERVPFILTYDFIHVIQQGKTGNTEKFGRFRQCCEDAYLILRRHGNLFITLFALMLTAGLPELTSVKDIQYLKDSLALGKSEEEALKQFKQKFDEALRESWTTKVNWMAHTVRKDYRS
T1 sequence (P27986 whole entry partner): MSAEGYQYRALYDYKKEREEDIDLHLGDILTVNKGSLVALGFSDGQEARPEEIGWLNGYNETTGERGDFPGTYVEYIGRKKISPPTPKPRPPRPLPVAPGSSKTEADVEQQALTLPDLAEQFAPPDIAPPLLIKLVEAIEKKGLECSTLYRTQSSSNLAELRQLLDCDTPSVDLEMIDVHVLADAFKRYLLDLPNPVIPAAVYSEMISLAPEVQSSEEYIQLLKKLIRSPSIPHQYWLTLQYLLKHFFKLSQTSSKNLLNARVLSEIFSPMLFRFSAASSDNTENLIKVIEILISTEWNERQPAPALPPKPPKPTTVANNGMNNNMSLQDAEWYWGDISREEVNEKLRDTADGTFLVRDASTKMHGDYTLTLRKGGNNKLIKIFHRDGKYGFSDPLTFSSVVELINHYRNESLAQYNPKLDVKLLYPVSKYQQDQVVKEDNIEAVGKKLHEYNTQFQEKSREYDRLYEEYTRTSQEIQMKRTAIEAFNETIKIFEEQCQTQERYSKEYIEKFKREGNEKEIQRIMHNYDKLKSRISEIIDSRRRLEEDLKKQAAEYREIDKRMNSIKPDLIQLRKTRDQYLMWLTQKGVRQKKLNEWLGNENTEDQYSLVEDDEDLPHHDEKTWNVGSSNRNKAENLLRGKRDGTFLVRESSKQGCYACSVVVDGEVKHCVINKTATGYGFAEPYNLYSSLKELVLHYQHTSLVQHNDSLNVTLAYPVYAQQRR
T2 sequence (P42336 whole entry): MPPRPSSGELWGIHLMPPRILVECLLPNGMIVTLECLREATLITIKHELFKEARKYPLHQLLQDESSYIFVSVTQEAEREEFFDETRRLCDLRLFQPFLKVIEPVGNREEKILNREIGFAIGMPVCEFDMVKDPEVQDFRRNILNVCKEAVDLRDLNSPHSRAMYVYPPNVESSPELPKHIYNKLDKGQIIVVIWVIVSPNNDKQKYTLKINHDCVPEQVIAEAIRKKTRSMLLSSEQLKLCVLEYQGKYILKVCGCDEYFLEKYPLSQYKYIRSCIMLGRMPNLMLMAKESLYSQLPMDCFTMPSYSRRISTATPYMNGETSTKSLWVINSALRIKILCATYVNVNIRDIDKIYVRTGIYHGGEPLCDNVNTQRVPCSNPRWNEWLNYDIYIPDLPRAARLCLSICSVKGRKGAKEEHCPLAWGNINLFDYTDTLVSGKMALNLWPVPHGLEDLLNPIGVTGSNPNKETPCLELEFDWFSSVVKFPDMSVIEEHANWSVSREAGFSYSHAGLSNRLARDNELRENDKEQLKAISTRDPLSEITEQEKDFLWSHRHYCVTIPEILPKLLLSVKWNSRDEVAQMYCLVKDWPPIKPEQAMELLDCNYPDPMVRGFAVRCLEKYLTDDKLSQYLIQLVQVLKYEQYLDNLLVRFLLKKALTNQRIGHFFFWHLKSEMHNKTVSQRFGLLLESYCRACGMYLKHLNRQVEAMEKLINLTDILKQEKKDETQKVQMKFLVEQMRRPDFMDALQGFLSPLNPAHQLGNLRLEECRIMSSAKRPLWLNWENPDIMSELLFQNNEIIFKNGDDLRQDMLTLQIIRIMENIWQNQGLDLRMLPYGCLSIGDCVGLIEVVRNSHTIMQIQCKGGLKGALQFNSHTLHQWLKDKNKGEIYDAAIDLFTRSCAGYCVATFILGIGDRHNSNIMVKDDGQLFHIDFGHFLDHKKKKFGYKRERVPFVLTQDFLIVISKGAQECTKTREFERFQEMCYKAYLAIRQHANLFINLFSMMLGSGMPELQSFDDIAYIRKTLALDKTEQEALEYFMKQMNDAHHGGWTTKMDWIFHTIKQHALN
T2 sequence (P27986 whole entry partner): as the sequence (P27986 whole entry partner) above

| SMILES | EC50 (Balb/c splenic B cells; [1]) [nM] | IC50 (PI3Kβ) [nM] | IC50 (PI3Kα) [nM] | EC50 (Balb/c splenic B cells) [nM] |
| --- | --- | --- | --- | --- |
| C[C@H](Nc1nc(N)ncc1C#N)c1cc2cccc(-c3cncc(O)c3)c2c(=O)n1-c1ccccc1 [Compound 13, 2-amino-4-((S)-1-(8-(5-hydroxypyridin-3-yl)-1-oxo-2-phenyl-1,2-dihydroisoquinolin-3-yl)ethylamino)pyrimidine-5-carbonitrile] | < 100 | 1000 to 10000 | 1000 to 10000 | – |
| COc1cncc(-c2cccc3cc([C@H](C)Nc4nc(N)ncc4C#N)n(-c4cccc(F)c4)c(=O)c23)c1 [Compound 27] | < 100 | 1000 to 10000 | – | – |
| COc1cc(-c2cccc3cc([C@H](C)Nc4nc(N)ncc4C#N)n(-c4cccc(F)c4)c(=O)c23)ccn1 [Compound 28] | < 100 | 1000 to 10000 | – | – |
| C[C@H](Nc1nc(N)ncc1C#N)c1cc2cccc(-c3ccnnc3)c2c(=O)n1-c1cccc(F)c1 [Compound 30] | < 100 | 1000 to 10000 | – | – |
| C[C@H](Nc1nc(N)ncc1C#N)c1cc2cccc(-c3ccc(Cl)cc3)c2c(=O)n1-c1ccccc1 [Compound 32] | – | 1000 to 10000 | 1000 to 10000 | – |
| COc1ccc(-c2cccc3cc([C@H](C)Nc4nc(N)ncc4C#N)n(-c4ccccc4)c(=O)c23)cn1 [Compound 35] | – | 1000 to 10000 | 1000 to 10000 | – |
| COc1ccc(-c2cccc3cc([C@H](C)Nc4nc(N)ncc4C#N)n(-c4ccccc4)c(=O)c23)cc1 [Compound 38] | – | 1000 to 10000 | 1000 to 10000 | – |
| C[C@H](Nc1nc(N)ncc1C#N)c1cc2cccc(-c3ccc(N(C)C)cc3)c2c(=O)n1-c1ccccc1 [Compound 42] | < 100 | 1000 to 10000 | 1000 to 10000 | – |
| C[C@H](Nc1nc(N)ncc1C#N)c1cc2cccc(-c3ccc(C#N)cc3)c2c(=O)n1-c1ccccc1 [Compound 43] | < 100 | 1000 to 10000 | 1000 to 10000 | – |
| C[C@H](Nc1nc(N)ncc1C#N)c1cc2cccc(-c3cccc(C#N)c3)c2c(=O)n1-c1ccccc1 [Compound 44] | < 100 | 1000 to 10000 | 1000 to 10000 | – |
| C[C@H](Nc1nc(N)ncc1C#N)c1cc2cccc(-c3ccc(S(N)(=O)=O)cc3)c2c(=O)n1-c1ccccc1 [Compound 45] | < 100 | 1000 to 10000 | 1000 to 10000 | – |
| C[C@H](Nc1nc(N)ncc1C#N)c1cc2cccc(-c3cncc(C(F)(F)F)c3)c2c(=O)n1-c1ccccc1 [Compound 52] | < 100 | 1000 to 10000 | 1000 to 10000 | – |
| C[C@H](Nc1nc(N)ncc1C#N)c1nc2cccc(-c3cnn(C)c3)c2c(=O)n1-c1ccccc1 [Compound 61] | < 100 | 1000 to 10000 | 1000 to 10000 | – |
| Cc1cc(-c2cccc3nc([C@H](C)Nc4nc(N)ncc4C#N)n(-c4ccccc4)c(=O)c23)ccn1 [Compound 62] | < 100 | 1000 to 10000 | 1000 to 10000 | – |
| C[C@H](Nc1nc(N)ncc1C#N)c1nc2cccc(-c3ccnnc3)c2c(=O)n1-c1ccccc1 [Compound 66, (S)-2-amino-4-((1-(4-oxo-3-phenyl-5-(pyridazin-4-yl)-3,4-dihydroquinazolin-2-yl)ethyl)amino)pyrimidine-5-carbonitrile] | < 100 | 1000 to 10000 | 1000 to 10000 | – |
| Cc1ncc(-c2cccc3cc([C@H](C)Nc4nc(N)ncc4C#N)n(-c4ccccc4)c(=O)c23)s1 [Compound 68] | – | 1000 to 10000 | 1000 to 10000 | – |
| COc1ncc(-c2cccc3cc([C@H](C)Nc4nc(N)ncc4C#N)n(-c4ccccc4)c(=O)c23)s1 [Compound 70] | – | 1000 to 10000 | 1000 to 10000 | – |
| C[C@H](Nc1nc(N)ncc1C#N)c1cc2cccc(-c3cnoc3)c2c(=O)n1-c1ccccc1 [Compound 74] | < 100 | 1000 to 10000 | 1000 to 10000 | – |
| C[C@H](Nc1nc(N)ncc1C#N)c1cc2cccc(-c3ccc4c(c3)OCO4)c2c(=O)n1-c1ccccc1 [Compound 94] | < 100 | 1000 to 10000 | 1000 to 10000 | – |

| SMILES | EC50 (Balb/c splenic B cells; [1]) [nM] | IC50 (PI3Kβ) [nM] | IC50 (PI3Kα) [nM] | EC50 (Balb/c splenic B cells) [nM] |
| --- | --- | --- | --- | --- |
| C[C@H](Nc1nc(N)ncc1C#N)c1cc2cccc(-c3cncc(F)c3)c2c(=O)n1-c1ccccc1 [Compound 98] | < 100 | 1000 to 10000 | 1000 to 10000 | – |
| COc1cc(-c2cccc3cc([C@H](C)Nc4nc(N)ncc4C#N)n(-c4ccccc4)c(=O)c23)cnc1C [Compound 100] | < 100 | 1000 to 10000 | – | – |
| C[C@H](Nc1nc(N)ncc1C#N)c1cc2cccc(-c3cccc(S(N)(=O)=O)c3)c2c(=O)n1-c1ccccc1 [Compound 102] | < 100 | 1000 to 10000 | 1000 to 10000 | – |
| COc1ncc(-c2cccc3cc([C@H](C)Nc4nc(N)ncc4C#N)n(C4CC4)c(=O)c23)cn1 [Compound 105] | < 100 | 1000 to 10000 | 1000 to 10000 | – |
| COc1cc(-c2cccc3nc([C@H](C)Nc4nc(N)ncc4C#N)n(-c4ccccc4)c(=O)c23)ccn1 [Compound 116] | – | 1000 to 10000 | 1000 to 10000 | < 100 |
| C[C@H](Nc1nc(N)ncc1C#N)c1cc2cccc(CC#N)c2c(=O)n1-c1ccccc1 [Compound 124] | < 100 | 1000 to 10000 | – | – |
| C[C@H](Nc1nc(N)ncc1C#N)c1cc2ccccc2c(=O)n1-c1ccccc1 [Compound 125] | < 100 | 1000 to 10000 | 1000 to 10000 | – |
| C[C@H](Nc1nc(N)ncc1C#N)c1cc2cccc(-c3cccc(NS(C)(=O)=O)c3)c2c(=O)n1-c1ccccc1 [Compound 126] | < 100 | 1000 to 10000 | 1000 to 10000 | – |
| COc1cc(-c2cccc3cc([C@H](C)Nc4nc(N)ncc4-c4cnc(OC)s4)n(-c4ccccc4)c(=O)c23)ccn1 [Compound 140] | < 100 | 1000 to 10000 | – | – |
| COc1cccc(-c2cccc3cc([C@H](C)Nc4nc(N)ncc4C#N)n(-c4ccccc4)c(=O)c23)n1 [Compound 166] | < 100 | 1000 to 10000 | – | – |
| C[C@H](Nc1nc(N)ncc1C#N)c1cc2cccc(-c3ccc(NS(C)(=O)=O)cc3)c2c(=O)n1-c1ccccc1 [Compound 167] | < 100 | 1000 to 10000 | 1000 to 10000 | – |
| COc1cc(-c2cccc3cc([C@H](C)Nc4nc(N)ncc4-c4cnc(C)s4)n(-c4ccccc4)c(=O)c23)ccn1 [Compound 181] | < 100 | 1000 to 10000 | – | – |
| C[C@H](Nc1nc(N)ncc1C#N)c1cc2cccc(-c3ccc(=O)n(C)c3)c2c(=O)n1-c1ccccc1 [Compound 183] | < 100 | 1000 to 10000 | 1000 to 10000 | – |
| C[C@H](Nc1nc(N)ncc1C#N)c1cc2cccc(-c3ccnc(N)c3)c2c(=O)n1-c1ccccc1 [Compound 187] | < 100 | 1000 to 10000 | 1000 to 10000 | – |
| COc1cc(-c2cccc3cc([C@H](C)Nc4nc(N)ncc4C#N)n(-c4ccccc4)c(=O)c23)cnc1OC [Compound 192] | < 100 | 1000 to 10000 | – | – |
| C[C@H](Nc1nc(N)ncc1C#N)c1cc2cccc(-c3ccc(=O)n(C4CCCC4)c3)c2c(=O)n1-c1ccccc1 [Compound 233] | < 100 | 1000 to 10000 | – | – |
| C[C@H](Nc1nc(N)ncc1C#N)c1cc2cccc(Cl)c2c(=O)n1CC(C)(C)C [Compound 246] | 100 to 1000 | 1000 to 10000 | – | – |
| Cc1ccc(-n2c([C@H](C)Nc3nc(N)ncc3C#N)cc3cccc(Cl)c3c2=O)cc1 [Compound 252] | 100 to 1000 | 1000 to 10000 | – | – |
| C[C@H](Nc1nc(N)ncc1-c1cccs1)c1cc2cccc(Cl)c2c(=O)n1-c1ccccc1 [Compound 367] | < 100 | 1000 to 10000 | – | – |

Source: patent US8785470B2, “Heterocyclic compounds and uses thereof” (Infinity Pharmaceuticals, Inc., priority 2011, dated 2014)
